Assay results taken from patent US20230029554A1, “ORGANOID CULTURES” (THE WALTER AND ELIZA HALL INSTITUTE OF MEDECAL RESEARCH, priority 2019, published 2023).
pEC50: −log10 of the molar value.

Key:
[1] = physiological concentrations observed in patients; cited from earlier work
cancer organoid WCB024T [2] = test: Regorafenib dose-response in 384-well LVM suspension culture, image analysis (mean organoid size); format: cell-based; conditions: Homo sapiens, 168 h, imaging, 7 days drug, 3% Matrigel, read-out: Mean ED50
Method: (§1) Organoids were digested with TrypLE Express enzyme at 37° C. for 15-20 min. Digestion was terminated in 1% BSA in DMEM/F12 and fragments were collected by centrifugation. Pellets were resuspended in culture medium, dissociated with a 26 G needle and filtered through a 40 μm cell strainer (Bio-Strategy, BDAA352340) to produce a single cell suspension. Live cells were counted using a hemocytometer and trypan blue staining. Single cells (3000 cells in 60 μl/well) were suspended in culture medium with 3% Matrigel, penicillin-streptomycin, normocin and 10 μM Y27632 and seeded in 384-well optical plates (Thermo Fisher Scientific, NUN242764) using a MANTIS® liquid handling robot (Formulatrix), and established for 3 days prior to drug addition. For plate uniformity studies, 1 μM bortezomib (Selleck, S1013) was used as the positive control, and 0.5% DMSO (Sigma, D2650) was used as a negative vehicle control. For the drug-dose response curves, regorafenib (Selleck, S1178) was used in a 9 point 4-fold titration series starting at 50 μM. All compound plates were prepared using a JANUS liquid handling robot (PerkinElmer) and stamped into 384-well plates using an integrated PinTool addition accessory (PerkinElmer).
(§2) PDTOs were imaged every 24 h for 7 days by bright-field microscopy as z-stacks on an automated Eclipse Ti2 Inverted Microscope System with an integrated tissue culture incubator (Nikon). 384-well images were captured using a 4× dry objective and Nikon Eclipse Ti2 software with a 25 μm Z-stack over a range of 500 μm. On day 7, 20μl CellTiter-Glo 3D reagent (Promega, G9683) was added using the MANTIS® liquid handling robot, plates were shaken at 1000 rpm for 30 mins at room temperature and luminescence measured using an EnVision plate reader (PerkinElmer).
(§3) For image analysis, flattening of Z-stack bright-field images, removal of background debris and selection of organoids were performed using ImageJ software (NIH Image). The projection of z-stack images onto a single in-focus image was carried out using the Extended Depth of Field (EDF) plugin in “easy mode”, with the parameter quality=′1′ and topology=1′. Processed images were exported as high-quality tiff files. Background debris removal was performed by with a series of steps including Subtract Background, Enhance Local Contrast (CLAHE), set AutoThreshold, set Black Background, and Convert to Mask. Organoid selection and feature extraction were achieved using sequential Analyze Particles, Invert LUT, Fill Holes, Watershed, Set Measurements and Analyze Particles steps. Features of selected organoids were exported as text files for determination of mean organoid size.
(§4) For comparison of uniformity of regorafenib dose response curves between imaging and CellTitreGlo 3D data, response curves were fitted using a 4-parameter log-logistic function to percent viability data.
(§5) Plate uniformity in the 384-well format was evaluated for maximum (Max) signals, minimum (Min) signals, and drug dose-dependent midpoint (Mid) signals (FIG. 15c-f). To determine Max signals, organoids were established for 3 days, treated with 0.5% DMSO (vehicle control) using a JANUS Automated Liquid Handling Workstation with a 384 pin tool, and incubated for 7 days. […] To evaluate dose-dependent Mid signals, regorafenib was titrated across each half of the assay plate in a 9-step, 4-fold dilution series starting from 50 μM, generating a total of 24 drug dose-response curves. Organoid viability was determined by both image analysis and CellTiter-Glo 3D luminescence measurements. Mean organoid size and luminescence signals were visualized as heatmaps for each plate and plotted by wells for each plate row from left to right or as drug dose-response curves.

cancer organoid WCB088T [3] = test: as above; format: cell-based; conditions: Homo sapiens, 168 h, imaging, 7 days drug, 3% Matrigel, read-out: Mean ED50
Method: as §1, §2, §3, §4, §5

cancer organoid WCB123LU [4] = test: as above; format: cell-based; conditions: Homo sapiens, 168 h, imaging, 7 days drug, 3% Matrigel, read-out: Mean ED50
Method: as §1, §2, §3, §4, §5

mitochondrial function = conditions: Weng, Z. et al. (2015) Toxicology 327, 10-21; cited from earlier work
cancer organoid WCB024T [5] = test: Regorafenib dose-response in 384-well LVM suspension culture, CellTitre-Glo 3D viability assay; format: cell-based; conditions: Homo sapiens, 168 h, 7 days drug, 3% Matrigel, read-out: Mean ED50
Method: as §1, §2, §4, §5

cancer organoid WCB088T [6] = test: as above; format: cell-based; conditions: Homo sapiens, 168 h, 7 days drug, 3% Matrigel, read-out: Mean ED50
Method: as §1, §2, §4, §5

cancer organoid WCB123LU [7] = test: as above; format: cell-based; conditions: Homo sapiens, 168 h, 7 days drug, 3% Matrigel, read-out: Mean ED50
Method: as §1, §2, §4, §5

[8] = test system: colorectal cancer organoids; test: Inhibition of colorectal cancer organoid growth by bortezomib (cell killing control); format: cell-based, human; conditions: at 1 μM; three cancer organoids; image analysis and CellTitreGlo 3D (FIG. 17)
Method: The bortezomib concentration of 1 um was selected as positive (killing) control, indicated by the dashed red line.
Organoids were digested with TrypLE Express enzyme at 37° C. for 15-20 min. Digestion was terminated in 1% BSA in DMEM/F12 and fragments were collected by centrifugation. Pellets were resuspended in culture medium, dissociated with a 26 G needle and filtered through a 40 μm cell strainer (Bio-Strategy, BDAA352340) to produce a single cell suspension. Live cells were counted using a hemocytometer and trypan blue staining. Single cells (3000 cells in 60 μl/well) were suspended in culture medium with 3% Matrigel, penicillin-streptomycin, normocin and 10 μM Y27632 and seeded in 384-well optical plates (Thermo Fisher Scientific, NUN242764) using a MANTIS® liquid handling robot (Formulatrix), and established for 3 days prior to drug addition. […]
Plate uniformity in the 384-well format was evaluated for maximum (Max) signals, minimum (Min) signals, and drug dose-dependent midpoint (Mid) signals (FIG. 15c-f). […] Organoid viability was determined by both image analysis and CellTiter-Glo 3D luminescence measurements. Mean organoid size and luminescence signals were visualized as heatmaps for each plate and plotted by wells for each plate row from left to right or as drug dose-response curves.

In the case of `O=c1[nH]cc(F)c(=O)[nH]1` [5-FU, 5-fluorouracil], the Cmax [1] is given as ~7.5 µM.
For `CCc1c2c(nc3ccc(O)cc13)-c1cc3c(c(=O)n1C2)COC(=O)[C@]3(O)CC` [SN-38], the Cmax [1] is given as ~0.14 µM.
In the case of TAS-102, the Cmax [1] is listed as ~18.2 µM.
For `O=C1[O][Pt]2([NH][C@@H]3CCCC[C@H]3[NH]2)[O]C1=O` [oxaliplatin], the Cmax [1] is given as ~5 µM.
`CNC(=O)c1cc(Oc2ccc(NC(=O)Nc3ccc(Cl)c(C(F)(F)F)c3)c(F)c2)ccn1` [regorafenib] gave a pEC50 (cancer organoid WCB024T [2]; Mid (Left) plate half) of 5.81, a pEC50 (cancer organoid WCB024T [2]; Mid (Right) plate half) of 5.64 and a pEC50 (cancer organoid WCB088T [3]; Mid (Left) plate half) of 5.22. It also gave a pEC50 (cancer organoid WCB088T [3]; Mid (Right) plate half) of 4.99, a pEC50 (cancer organoid WCB123LU [4]; Mid (Left) plate half) of 5.91 and a pEC50 (cancer organoid WCB123LU [4]; Mid (Right) plate half) of 5.81. For the same compound, the “effect on mitochondrial function and cellular ATP levels” value (mitochondrial function) was “impair mitochondrial function and decrease cellular ATP levels”, the pEC50 (cancer organoid WCB024T [5]; Mid (Left) plate half) was 5.43 and the pEC50 (cancer organoid WCB024T [5]; Mid (Right) plate half) was 5.29. It also gave a pEC50 (cancer organoid WCB088T [6]; Mid (Left) plate half) of 5.70, a pEC50 (cancer organoid WCB088T [6]; Mid (Right) plate half) of 5.47 and a pEC50 (cancer organoid WCB123LU [7]; Mid (Left) plate half) of 6.00. For the same compound, the pEC50 (cancer organoid WCB123LU [7]; Mid (Right) plate half) was 5.96 and the Cmax [1] was ~7.3 µM.
With `CC(C)C[C@H](NC(=O)[C@H](Cc1ccccc1)NC(=O)c1cnccn1)B(O)O` [bortezomib] the “growth inhibition (cell killing control)” value [8] was “complete growth inhibition”.
